By IC50 is commonly meant the concentration that gives 50% inhibition. Lower therefore signals greater potency in that assay.

One test concerns the target T1, BRD4 BD2 (Homo sapiens, UniProt O60885).
T1 construct: made in house
Nature of the test: AlphaScreen binding assay, BRD4 Bromodomain 2. The gist of the method: (§1)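 An AlphaScreen competition format was used with His-BRD4 BD1 or BD2 and biotin-H4 K5/8/12/16-acetyl peptide, each at matched final levels of 50 nM (BD1) or 100 nM (BD2). Incubation in HEPES/NaCl buffer with 0.1% BSA and 0.01% Triton X-100 ran ≥1 h before IC50 determination.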
(In Alpha technology, singlet oxygen from a donor bead excites a nearby acceptor bead.)

Another test has as its target T2, BRD4 BD1 (Homo sapiens, UniProt O60885).
T2 construct: made in house
Nature of the test: AlphaScreen binding assay, BRD4 Bromodomain 1. In outline:
as §1

`CC(=O)N1C[C@H](C)N(C(C)=O)c2ccc(-c3ccc(S(C)(=O)=O)cc3)cc21` [Example I-241]: the 50% inhibitory concentration (IC50) on BRD4 BD2 fell in the range of 50 to 500 nM; on BRD4 BD1, 1000 to 10000 nM.
In the same order, the values of `CC(=O)N1c2ccc(-c3ccc(S(C)(=O)=O)cc3)cc2N(C(=O)C2CCCC2)C[C@@H]1C` [Example I-244] are 50 to 500 nM and 1000 to 10000 nM.
For the compound `CC(=O)N1c2ccccc2N(Cc2ccc(Oc3ccccc3)cc2)C[C@@H]1C` [Example I-919], the IC50 on BRD4 BD2 was greater than 500 nM; on BRD4 BD1, greater than 10000 nM.
Regarding `C[C@H]1CN(C(=O)C2CC2)c2cc(-c3ccc(CS(N)(=O)=O)cc3)ccc2N1C(=O)C1CC1` [Example I-446], the 50% inhibitory concentration (IC50) lay in the range of 50 to 500 nM at BRD4 BD2 and 100 to 1000 nM on BRD4 BD1.
In the same order, the values of `CC(=O)N1c2ccccc2N(Cc2ccc(O)c(C)c2)C[C@@H]1C` [Example I-904] are greater than 500 nM and greater than 10000 nM.
For `CC(=O)N1c2ccc(-c3cnn(C4COC4)c3)cc2N(C(=O)C(C)C)C[C@@H]1C` [Example I-109, (S)-1-(4-acetyl-3-methyl-7-(1-(oxetan-3-yl)-1H-pyrazol-4-yl)-3,4-dihydroquinoxalin-1 (2H)-yl)-2-methylpropan-1-one], in that order: greater than 500 nM and greater than 10000 nM.
As for `C[C@H]1CN(C(=O)c2ccco2)c2cc(-c3ccc(S(C)(=O)=O)cc3)ccc2N1C(=O)N1CCCC1` [Example I-376], the results for the IC50 on BRD4 BD2 and at BRD4 BD1 were greater than 500 nM and greater than 10000 nM, respectively.
As for `CC(=O)N1c2ccc(-c3cnn(C4COC4)c3)cc2N(C(=O)OCCC2COC2)C[C@@H]1C` [Example I-67, (S)-2-(oxetan-3-yl)ethyl 4-acetyl-3-methyl-7-(1-(oxetan-3-yl)-1H-pyrazol-4-yl)-3,4-dihydroquinoxaline-1(2H)-carboxylate], the IC50 on BRD4 BD2 is greater than 500 nM; on BRD4 BD1, greater than 10000 nM.
Regarding `CC(=O)N1c2ccc(-c3cnn(C4CC4)c3)cc2N(C(=O)Oc2ncccc2C(F)(F)F)C[C@@H]1C` [Example I-1188], the IC50 at BRD4 BD2 was greater than 500 nM; at BRD4 BD1 it was greater than 10000 nM.
Consider `COC(=O)N1c2ccc(-c3cnn(C[C@@H]4CCNC4)c3)cc2N(C(=O)OC(C)C)C[C@@H]1C` [Example I-691], for which the IC50 on BRD4 BD2 lay in the range of 50 to 500 nM; on BRD4 BD1, 1000 to 10000 nM.
In the same order, the values of `CC(=O)N1c2ccc(-c3ccc(F)cc3)cc2N(C(=O)c2ccco2)C[C@@H]1C` [Example I-818] are less than 50 nM and 1000 to 10000 nM.
As to `CC(=O)N1c2ccc(-c3ccc(S(C)(=O)=O)cc3)cc2N(C(=O)c2cc3cc(OC(F)(F)F)ccc3[nH]2)CC1C` (stereo not shown) [Example I-788], the IC50 on BRD4 BD2 was greater than 500 nM; on BRD4 BD1 it was greater than 10000 nM.
Take `CC(=O)N1c2ccc(-c3ccc(S(C)(=O)=O)cc3)cc2N(C(=O)Nc2cccc(C)c2)C[C@@H]1C` [Example I-971]: the IC50 is 50 to 500 nM at BRD4 BD2 and greater than 10000 nM at BRD4 BD1.
In the same order, the values of `CC(=O)N1c2ccc(-c3cnn(C4COC4)c3)cc2N(C(=O)OCC2COC2)C[C@@H]1C` [Example I-64, (S)-oxetan-3-ylmethyl 4-acetyl-3-methyl-7-(1-(oxetan-3-yl)-1H-pyrazol-4-yl)-3,4-dihydroquinoxaline-1(2H)-carboxylate] are 50 to 500 nM and 1000 to 10000 nM.
Take `COCC(=O)N1c2ccc(-c3ccc(S(C)(=O)=O)cc3)cc2N(C(=O)c2ccco2)C[C@@H]1C` [Example I-368]: the IC50 was greater than 500 nM on BRD4 BD2 and greater than 10000 nM on BRD4 BD1.
For `COC(=O)N1c2ccc(-c3cnn(C4CC4)c3)cc2N(C(=O)OC2COC2)C[C@@H]1C` [Example I-999], in that order: 50 to 500 nM and 1000 to 10000 nM.
In the case of `CC(=O)N1c2ccccc2N(S(=O)(=O)c2ccc(C)cc2C)C[C@@H]1C` [Example I-949], the IC50 was greater than 500 nM at BRD4 BD2 and greater than 10000 nM at BRD4 BD1.
For `CC(=O)N1c2ccccc2N(C(=O)COc2ccc(F)cc2)C[C@@H]1C` [Example I-735], in that order: greater than 500 nM and greater than 10000 nM.
In the same order, the values of `CC(=O)N1c2ccccc2N(CC2CCOCC2)C[C@@H]1C` [Example I-925] are greater than 500 nM and greater than 10000 nM.
Consider `C[C@H]1CN(C(=O)C2CC2)c2cc(-c3cn(C)nn3)ccc2N1C(=O)C1CC1` [Example I-454], for which the half-maximal inhibitory concentration (IC50) is 50 to 500 nM on BRD4 BD2 and 1000 to 10000 nM on BRD4 BD1.
`COc1ncc(-c2ccc3c(c2)N(C(=O)c2ccco2)C[C@H](C)N3C(C)=O)cn1` [Example I-834]: the IC50 is 50 to 500 nM at BRD4 BD2 and 1000 to 10000 nM at BRD4 BD1.
In the same order, the values of `CC(=O)N1c2ccc(-c3cnn(C4CC4)c3)cc2N(C(=O)Oc2cnc3ccccc3c2)C[C@@H]1C` [Example I-1203] are 50 to 500 nM and 1000 to 10000 nM.
Consider `CC(=O)N1c2ccc(-c3ccc(-c4cc(C(=O)O)[nH]n4)cc3)cc2N(C(=O)c2ccco2)CC1C` (stereo not shown) [Example I-421], for which the half-maximal inhibitory concentration (IC50) on BRD4 BD2 was less than 50 nM; on BRD4 BD1, 100 to 1000 nM.
Take `COc1ccc(OC(=O)N2C[C@H](C)N(C(C)=O)c3ccc(-c4cnn(C5CC5)c4)cc32)c(Cl)c1` [Example I-505]: the 50% inhibitory concentration (IC50) on BRD4 BD2 was in the range of 50 to 500 nM; at BRD4 BD1, 1000 to 10000 nM.
For `COC(=O)N1c2ccc(-c3ccc(N(C)S(C)(=O)=O)cc3)cc2N(C(=O)Oc2cccnc2)C[C@@H]1C` [Example I-1293], in that order: greater than 500 nM and 1000 to 10000 nM.
For `CC(=O)N1c2ccc(-c3ccc(S(C)(=O)=O)cc3)cc2N(C(=O)OC(C)C)C[C@H]1C` [Example I-297], in that order: greater than 500 nM and greater than 10000 nM.
Turning to `CO[C@H](C(=O)N1C[C@H](C)N(C(C)=O)c2ccccc21)c1ccccc1` [Example I-741], the values for the concentration for half-maximal inhibition (IC50) on BRD4 BD2 and on BRD4 BD1 were greater than 500 nM and greater than 10000 nM, respectively.
For `CNC(=O)N1C[C@H](C)N(C(C)=O)c2ccc(-c3ccc(S(C)(=O)=O)cc3)cc21` [Example I-253], in that order: greater than 500 nM and greater than 10000 nM.
For the compound `CC(=O)N1c2ccc(-c3cnn(C4COC4)c3)cc2N(C(=O)CC2CCCC2)C[C@@H]1C` [Example I-111, (S)-1-(4-acetyl-3-methyl-7-(1-(oxetan-3-yl)-1H-pyrazol-4-yl)-3,4-dihydroquinoxalin-1(2H)-yl)-2-cyclopentylethanone], the figures for the IC50 on BRD4 BD2 and at BRD4 BD1 were 50 to 500 nM and 1000 to 10000 nM, respectively.
With `COCCC(=O)N1C[C@H](C)N(C(C)=O)c2ccccc21` [Example I-700], the figures for the IC50 at BRD4 BD2 and at BRD4 BD1 were greater than 500 nM and greater than 10000 nM, respectively.
With `CC(=O)N1c2ccccc2N(C(=O)Cc2cccc(C(F)(F)F)c2)C[C@@H]1C` [Example I-710], the figures for the IC50 at BRD4 BD2 and on BRD4 BD1 were greater than 500 nM and greater than 10000 nM, respectively.
In the same order, the values of `CC(=O)N1c2ccc(-c3ccc(CS(N)(=O)=O)cc3)cc2N(C(=O)c2ccco2)C[C@@H]1C` [Example I-418] are less than 50 nM and 1000 to 10000 nM.
On to `CC(=O)N1c2ccc(-c3cnn(C4CC4)c3)nc2N(C(=O)Nc2ccc(F)cc2)C[C@@H]1C` [Example I-192, (S)-1-acetyl-6-(1-cyclopropyl-1H-pyrazol-4-yl)-N-(4-fluorophenyl)-2-methyl-2,3-dihydropyrido[2,3-b]pyrazine-4(1H)-carboxamide], for which the IC50 at BRD4 BD2 was greater than 500 nM; on BRD4 BD1 it was greater than 10000 nM.
For `CC(C)OC(=O)N1C[C@H](C)N(C(=O)C2CC2)c2ccc(-c3cnn(CCNS(C)(=O)=O)c3)cc21` [Example I-613], in that order: greater than 500 nM and 1000 to 10000 nM.
`CC(=O)N1c2ccccc2N(C(=O)c2ccc(C(C)C)nc2)C[C@@H]1C` [Example I-729]: the IC50 at BRD4 BD2 was greater than 500 nM; on BRD4 BD1 it was greater than 10000 nM.
With `CC(=O)N1c2ccccc2N(C(=O)c2cccs2)C[C@@H]1C` [Example I-745], the IC50 is greater than 500 nM at BRD4 BD2 and greater than 10000 nM at BRD4 BD1.
For `CC(=O)N1c2ccccc2N(C(=O)c2ccccc2Oc2ccccc2)C[C@@H]1C` [Example I-744], in that order: greater than 500 nM and greater than 10000 nM.
In the same order, the values of `CC(=O)N1c2ccc(-c3cnn(C4CC4)c3)cc2N(C(=O)Oc2ccc(Cl)cc2Cl)C[C@@H]1C` [Example I-1193] are 50 to 500 nM and 1000 to 10000 nM.
For `CC(=O)N1c2ccc(-c3cnn(CC(=O)N(C)C4CC4)c3)cc2N(C(=O)C2CC2)C[C@@H]1C` [Example I-658], in that order: 50 to 500 nM and 1000 to 10000 nM.
For the compound `CC(=O)N1c2ccc(-c3cc4ccccc4n3C)cc2N(C(=O)c2ccco2)C[C@@H]1C` [Example I-839], the IC50 at BRD4 BD2 was greater than 500 nM; at BRD4 BD1 it was greater than 10000 nM.
In the same order, the values of `CC(=O)N1c2ccc(-c3cnn(C4COC4)c3)cc2N(C(=O)OC2CC3(COC3)C2)C[C@@H]1C` [Example I-70, 2-oxaspiro[3.3]heptan-6-yl (3S)-4-acetyl-3-methyl-7-[1-(oxetan-3-yl)-1H-pyrazol-4-yl]-1,2,3,4-tetrahydroquinoxaline-1-carboxylate] are greater than 500 nM and 1000 to 10000 nM.
In the same order, the values of `CC(=O)N1c2ccccc2N(C(=O)c2cnn(-c3ccccc3)c2C(F)(F)F)C[C@@H]1C` [Example I-756] are greater than 500 nM and greater than 10000 nM.
In the same order, the values of `CC(=O)N1c2ccc(-c3cnn(C4CC4)c3)cc2N(C(=O)Oc2cccnc2C)C[C@@H]1C` [Example I-514] are 50 to 500 nM and 1000 to 10000 nM.
With `COC(=O)N1c2ccc(-c3cnn(CCS(C)(=O)=O)c3)cc2N(C(=O)Oc2ccccn2)C[C@@H]1C` [Example I-1319], the IC50 at BRD4 BD2 lay in the range of 50 to 500 nM; on BRD4 BD1 it was 1000 to 10000 nM.
For `CC(=O)N1c2ccc(-c3ccc(S(C)(=O)=O)cc3)cc2N(C(=O)Oc2ccccn2)C[C@@H]1C` [Example I-1314], in that order: 50 to 500 nM and 1000 to 10000 nM.
For `CC(=O)N1c2ccc(-c3cccc(S(C)(=O)=O)c3)cc2N(C(=O)c2ccco2)C[C@@H]1C` [Example I-847], in that order: 50 to 500 nM and 1000 to 10000 nM.
For `COc1cccc(S(=O)(=O)N2C[C@H](C)N(C(C)=O)c3ccccc32)c1` [Example I-945], in that order: greater than 500 nM and greater than 10000 nM.

The values above are taken from patent US10703764B2, “Benzopiperazine compositions as BET bromodomain inhibitors” (FORMA Therapeutics, Inc., priority 2013, dated 2020).
